Assay [1] concerns mouse bone marrow‐derived macrophages (BMDM). Nature of the assay: Phagocytosis of fluorescent E. coli particles by BMDM. The format is cell-based. To be noted: 10 µM 4 h, washed, 48 h follow-up, versus MACTIDE treated and untreated BMDM. As to the method: We then analyzed if MACTIDE‐V affected the phagocytic activity of BMDM in vitro.
For the E. coli phagocytosis assay, cells were cultured in a 96‐well plate and treated with conjugates as previously described (for 4 h at a 10 µM concentration at 37 °C, then peptide conjugates were removed, washed with media and fresh media was added). The phagocytosis assay was performed at 48 h after treatment removal by removing the media, incubating fluorescent E. coli BioParticles for 2 h, followed by a 1 min incubation with trypan blue (Vybrant Phagocytosis Assay Kit, Invitrogen, Cat# V6694). Plates were read at 480 nm excitation and 520 nm emission using a BioTek Synergy H1 plate reader.

In assay [2] the test system is BMDM obtained from C57/Bl6 (B6) mice. The assay is described as follows: Flow cytometry and real-time PCR on B6 BMDM. Format: cell-based, mouse. The procedure:
At the mRNA level, MACTIDE‐V induced a clear increase in Il‐12, Chil3 and Nos2 genes, (Figure 6D, left panel). […] To further investigate whether the effect of MACTIDE‐V was mediated by YAP targeting, we analyzed a set of 7 YAP‐regulated genes (Figure 6D, right panel).
Figure S6. In vitro effect of MACTIDE-V on B6 mice-derived BMDMs. (A) Flow cytometry on BMDMs 48 h after treatment. GeoMean of MHC II in B6 BMDM, n=4 independent experiments. *p≤0.05. (B) Heatmap of the mRNA expression of genes involved in the functional activation of BMDM, measured by real-time PCR 48 h after treatment in B6 BMDM, n=2 independent experiments.

A further assay concerns YAP. Nature of the assay: YAP immunofluorescence in BMDM. The format is cell-based, mouse. To be noted: day 5 BMDM, 10 µM 4 h, washed, confocal microscopy 3 h later. An excerpt:
We speculated that the observed in vivo effect of MACTIDE‐V could be mediated by the modulation of macrophage phenotype elicited by Verteporfin, a drug that inhibits the co‐transcription factor Yes Associated Protein (YAP), and prevents the anti‐inflammatory shift in macrophages.^[ [26] ^] We therefore analyzed the effect of MACTIDE‐V on YAP localization and phenotypic changes in mouse bone marrow‐derived macrophages (BMDM) in vitro. We first treated BMDM with MACTIDE‐V, MACTIDE, or CtrlPep‐V and evaluated changes in YAP localization 3 h later using confocal microscopy. […] These observations are consistent with the reported effect of Verteporfin sequestering YAP in the cytoplasm.^[ [27], [28] ^]
Figure 6 MACTIDE‐V promotes a YAP‐ mediated anti‐ tumoral switch in bone marrow‐derived macrophages. Day 5 BMDM were incubated for 4 h with 10 µM conjugates, washed, and followed‐up in media. A) YAP Immunofluorescence (shown in red) was analyzed 3 h after treatment and B) phagocytosis of fluorescent E. coli particles at 48 h follow‐up. C) Flow cytometry on BMDM 48 h after treatment. Left panel, GeoMean of MHC II, CD206, CD80, and PD‐L1 in Balb/c BMDM. Median ± interquartile range. […] D) Heatmap of the mRNA expression of genes involved in the functional activation of BMDM, YAP signaling, and adhesion, measured by real‐time PCR 48 h after treatment in BALB/c BMDM. n = 3 independent experiments. […]

Take “Vert‐Ahx‐G(CTKSIPPIC)SPGAK‐OH (disulfide) [MACTIDE‐V]”: the “phagocytosis of fluorescently labeled E. coli” value in assay [1] is recorded as “significantly higher phagocytosis”. The “MHCII expression in B6 BMDM (GeoMean)” value in assay [2] (flow cytometry 48 h after treatment, n = 4) is reported as “increased MHCII expression”. In assay [2] (real-time PCR 48 h after treatment, n = 2), the “inflammatory gene mRNA expression in B6 BMDM” value was “upregulated the inflammatory genes Il‐1b, Il‐12 and Nos2”. For the same substance, the YAP localization entry in the assay on YAP was “excluded YAP from the nucleus”.
On to “Vert‐Ahx‐AKPCGS‐OH [CtrlPep‐V, reference compound]”, for which the YAP localization entry in the assay on YAP is on record as “uniformly spread throughout the cell”.

For the origin of these results see PMC11904948, “Peptide‐Drug Conjugate for Therapeutic Reprogramming of Tumor‐Associated Macrophages in Breast Cancer” (Advanced Science, 2025).
